Test results taken from patent publication US7932255B2, “2-aminocarbonyl substituted piperazine or diaza-cyclic compounds as apoptosis protein inhibitors (lap) modulators” (Novartis AG, priority 2006, dated 2011).
pIC50: −log10 of the molar value.

Target: T1, XIAP (Homo sapiens, UniProt P98170)
T1 construct: GST
Experiment: Disruption of the Smac peptide-(XIAP)BIR3 protein-protein interaction (Tables 2 and 3)
Format: binding
Conditions: Series A compounds, Table 2; read-out: XIAP IC50
Description: IC50 values for Series A compounds for XIAP. An assay capable of measuring disruption of the Smac peptide-(XIAP)BIR3 protein-protein interaction is established in the art as described in Example 2. In this assay IAP Inhibitor compounds compete with an immobilized Smac peptide for occupancy of the BIR3 binding pocket of XIAP. The rationale for this strategy results from the mutually exclusive nature of either Caspase 9 or Smac binding to the BIR3 pocket.
Assays are performed and IC50 values are calculated as follows: […]
IC50 values are calculated by logarithmic regression analysis of the percentage inhibition of each compound at 4 concentrations (usually 3- or 10-fold dilution series starting at 10 μM). In each experiment, the actual inhibition by reference compound is used for normalization of IC50 values to the basis of an average value of the reference inhibitor: Normalized IC50=measured IC50 average ref. IC50/measured ref. IC50
Activity determinations of compounds herein using the testing method described herein and as are well known in the art, are used with the following test compounds of formula (I). […] “Activity” as used herein is defined as having IC50 values for IAP target inhibition of less than 10 μM. Specifically, in the table:
IC50 values for Series B compounds are provided for XIAP. Assays are performed as described above using methods well known in the art.

T1 sequence (P98170 248-358 limits assumed, species assumed): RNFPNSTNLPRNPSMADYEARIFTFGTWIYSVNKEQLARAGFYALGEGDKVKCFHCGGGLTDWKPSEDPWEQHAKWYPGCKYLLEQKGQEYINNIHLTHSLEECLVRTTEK

| pIC50 | Molecule |
| --- | --- |
| > 5.00 | 4-Benzyl-1-[3-methyl-2-(2-methylamino-propionylamino)-butyryl]-piperazine-2-carboxylic acid (1,2,3,4-tetrahydro-naphthalen-1-yl)-amide [Compound 1] |
| > 5.00 | CNC(C)C(=O)NC(C(=O)N1CCN(S(=O)(=O)c2ccccc2)CC1C(=O)NC1CCCc2ccccc21)C(C)C (centres unmarked) [Compound 2, 4-Benzenesulfonyl-1-[3-methyl-2-(2-methylamino-propionylamino)-butyryl]-piperazine-2-carboxylic acid (1,2,3,4-tetrahydro-naphthalen-1-yl)-amide] |
| > 5.00 | CN[C@@H](C)C(=O)N[C@H](C(=O)N1CCN(Cc2cccnc2)C[C@H]1C(=O)NC1CCCc2ccccc21)C(C)C (stereo partly drawn) [Compound 3, (S)-1-[(S)-3-Methyl-2-((S)-2-methylamino-propionylamino)-butyryl]-4-pyridin-3-ylmethyl-piperazine-2-carboxylic acid (1,2,3,4-tetrahydro-naphthalen-1-yl)-amide] |
| > 5.00 | CN[C@@H](C)C(=O)N[C@H](C(=O)N1CCN(Cc2cccc(Oc3ccccc3)c2)C[C@H]1C(=O)NC1CCCc2ccccc21)C(C)C (stereo partly drawn) [Compound 4, (S)-1-[(S)-3-Methyl-2-((S)-2-methylamino-propionylamino)-butyryl]-4-(3-phenoxy-benzyl)-piperazine-2-carboxylic acid (1,2,3,4-tetrahydro-naphthalen-1-yl)-amide] |
| > 5.00 | CN[C@@H](C)C(=O)N[C@H](C(=O)N1CCN(C(=O)NCc2ccccc2)C[C@H]1C(=O)NC1CCCc2ccccc21)C(C)C (stereo partly drawn) [Compound 5, (S)-4-[(S)-3-Methyl-2-((S)-2-methylamino-propionylamino)-butyryl]-piperazine-1,3-dicarboxylic acid 1-benzylamide 3-[(1,2,3,4-tetrahydro-naphthalen-1-yl)-amide]] |
| > 5.00 | CN[C@@H](C)C(=O)N[C@H](C(=O)N1CCN(Cc2ccc(OC)cc2)C[C@H]1C(=O)NC1CCCc2ccccc21)C(C)C (stereo partly drawn) [Compound 6, (S)-4-(4-Methoxy-benzyl)-1-[(S)-3-methyl-2-((S)-2-methylamino-propionylamino)-butyryl]-piperazine-2-carboxylic acid (1,2,3,4-tetrahydro-naphthalen-1-yl)-amide] |
| > 5.00 | CN[C@@H](C)C(=O)N[C@H](C(=O)N1CCN(CC2CCCC2)C[C@H]1C(=O)NC1CCCc2ccccc21)C(C)C (stereo partly drawn) [Compound 7, (S)-4-Cyclopentylmethyl-1-[(S)-3-methyl-2-((S)-2-methylamino-propionylamino)-butyryl]-piperazine-2-carboxylic acid (1,2,3,4-tetrahydro-naphthalen-1-yl)-amide] |
| > 5.00 | CN[C@@H](C)C(=O)N[C@H](C(=O)N1CCN(CC(C)C)C[C@H]1C(=O)NC1CCCc2ccccc21)C(C)C (stereo partly drawn) [Compound 8, (S)-4-Isobutyl-1-[(S)-3-methyl-2-((S)-2-methylamino-propionylamino)-butyryl]-piperazine-2-carboxylic acid (1,2,3,4-tetrahydro-naphthalen-1-yl)-amide] |
| > 5.00 | CN[C@@H](C)C(=O)N[C@H](C(=O)N1CCN(Cc2ccncc2)C[C@H]1C(=O)NC1CCCc2ccccc21)C(C)C (stereo partly drawn) [Compound 9, (S)-1-[(S)-3-Methyl-2-((S)-2-methylamino-propionylamino)-butyryl]-4-pyridin-4-ylmethyl-piperazine-2-carboxylic acid (1,2,3,4-tetrahydro-naphthalen-1-yl)-amide] |
| > 5.00 | CN[C@@H](C)C(=O)N[C@H](C(=O)N1CCN(Cc2ccc(F)cc2)C[C@H]1C(=O)NC1CCCc2ccccc21)C(C)C (stereo partly drawn) [Compound 10, (S)-4-(4-Fluoro-benzyl)-1-[(S)-3-methyl-2-((S)-2-methylamino-propionylamino)-butyryl]-piperazine-2-carboxylic acid (1,2,3,4-tetrahydro-naphthalen-1-yl)-amide] |
| > 5.00 | CN[C@@H](C)C(=O)N[C@H](C(=O)N1CCN(S(=O)(=O)C2CCCCC2)C[C@H]1C(=O)NC1CCCc2ccccc21)C(C)C (stereo partly drawn) [Compound 11, (S)-4-Cyclohexanesulfonyl-1-[(S)-3-methyl-2-((S)-2-methylamino-propionylamino)-butyryl]-piperazine-2-carboxylic acid (1,2,3,4-tetrahydro-naphthalen-1-yl)-amide] |
| > 5.00 | CN[C@@H](C)C(=O)N[C@H](C(=O)N1CCN(Cc2ccc(C(F)(F)F)cc2)C[C@H]1C(=O)NC1CCCc2ccccc21)C(C)C (stereo partly drawn) [Compound 12, (S)-1-[(S)-3-Methyl-2-((S)-2-methylamino-propionylamino)-butyryl]-4-(4-trifluoromethyl-benzyl)-piperazine-2-carboxylic acid (1,2,3,4-tetrahydro-naphthalen-1-yl)-amide] |
| > 5.00 | CN[C@@H](C)C(=O)N[C@H](C(=O)N1CCN(C(=O)OCc2ccccc2)C[C@H]1C(=O)NC1CCCc2ccccc21)C(C)C (stereo partly drawn) [Compound 13, (S)-4-[(S)-3-Methyl-2-((S)-2-methylamino-propionylamino)-butyryl]-3-(1,2,3,4-tetrahydro-naphthalen-1-ylcarbamoyl)-piperazine-1-carboxylic acid benzyl ester] |
| > 5.00 | CN[C@@H](C)C(=O)N[C@H](C(=O)N1CCN(Cc2ccccc2)C[C@H]1C(=O)NC1CCCc2ccccc21)C(C)C (stereo partly drawn) [Compound 14, (S)-4-Benzyl-1-[(S)-3-methyl-2-((S)-2-methylamino-propionylamino)-butyryl]-piperazine-2-carboxylic acid (1,2,3,4-tetrahydro-naphthalen-1-yl)-amide] |
| > 5.00 | CN[C@@H](C)C(=O)N[C@H](C(=O)N1CCN(Cc2cccc3[nH]ccc23)C[C@H]1C(=O)NC1CCCc2ccccc21)C(C)C (stereo partly drawn) [Compound 15, (S)-4-(1H-Indol-4-ylmethyl)-1-[(S)-3-methyl-2-((S)-2-methylamino-propionylamino)-butyryl]-piperazine-2-carboxylic acid (1,2,3,4-tetrahydro-naphthalen-1-yl)-amide] |
| > 5.00 | CN[C@@H](C)C(=O)N[C@H](C(=O)N1CCN(Cc2ccc(NC(C)=O)cc2)C[C@H]1C(=O)NC1CCCc2ccccc21)C(C)C (stereo partly drawn) [Compound 16, (S)-4-(4-Acetylamino-benzyl)-1-[(S)-3-methyl-2-((S)-2-methylamino-propionylamino)-butyryl]-piperazine-2-carboxylic acid (1,2,3,4-tetrahydro-naphthalen-1-yl)-amide] |
| > 5.00 | CN[C@@H](C)C(=O)N[C@H](C(=O)N1CCN(C(=O)c2ccc(F)cc2)C[C@H]1C(=O)NC1CCCc2ccccc21)C(C)C (stereo partly drawn) [Compound 17, (S)-4-(4-Fluoro-benzoyl)-1-[(S)-3-methyl-2-((S)-2-methylamino-propionylamino)-butyryl]-piperazine-2-carboxylic acid (1,2,3,4-tetrahydro-naphthalen-1-yl)-amide] |
| > 5.00 | CN[C@@H](C)C(=O)N[C@H](C(=O)N1CCN(C(=O)CCOC)C[C@H]1C(=O)NC1CCCc2ccccc21)C(C)C (stereo partly drawn) [Compound 18, (S)-4-(3-Methoxy-propionyl)-1-[(S)-3-methyl-2-((S)-2-methylamino-propionylamino)-butyryl]-piperazine-2-carboxylic acid (1,2,3,4-tetrahydro-naphthalen-1-yl)-amide] |
| > 5.00 | CN[C@@H](C)C(=O)N[C@H](C(=O)N1CCN(CC2CCCCC2)C[C@H]1C(=O)NC1CCCc2ccccc21)C(C)C (stereo partly drawn) [Compound 19, (S)-4-Cyclohexylmethyl-1-[(S)-3-methyl-2-((S)-2-methylamino-propionylamino)-butyryl]-piperazine-2-carboxylic acid (1,2,3,4-tetrahydro-naphthalen-1-yl)-amide] |
| > 5.00 | CN[C@@H](C)C(=O)N[C@H](C(=O)N1CCN(CCC(F)(F)F)C[C@H]1C(=O)NC1CCCc2ccccc21)C(C)C (stereo partly drawn) [Compound 20, (S)-1-[(S)-3-Methyl-2-((S)-2-methylamino-propionylamino)-butyryl]-4-(3,3,3-trifluoro-propyl)-piperazine-2-carboxylic acid (1,2,3,4-tetrahydro-naphthalen-1-yl)-amide] |
| > 5.00 | CN[C@@H](C)C(=O)N[C@H](C(=O)N1CCN(CCC(C)(C)C)C[C@H]1C(=O)NC1CCCc2ccccc21)C(C)C (stereo partly drawn) [Compound 21, (S)-4-(3,3-Dimethyl-butyl)-1-[(S)-3-methyl-2-((S)-2-methylamino-propionylamino)-butyryl]-piperazine-2-carboxylic acid (1,2,3,4-tetrahydro-naphthalen-1-yl)-amide] |
| > 5.00 | CN[C@@H](C)C(=O)N[C@H](C(=O)N1CCN(Cc2cncs2)C[C@H]1C(=O)NC1CCCc2ccccc21)C(C)C (stereo partly drawn) [Compound 22, (S)-1-[(S)-3-Methyl-2-((S)-2-methylamino-propionylamino)-butyryl]-4-thiazol-5-ylmethyl-piperazine-2-carboxylic acid (1,2,3,4-tetrahydro-naphthalen-1-yl)-amide] |
| > 5.00 | CN[C@@H](C)C(=O)N[C@H](C(=O)N1CCN(Cc2ccc(OC(F)(F)F)cc2)C[C@H]1C(=O)NC1CCCc2ccccc21)C(C)C (stereo partly drawn) [Compound 23, (S)-1-[(S)-3-Methyl-2-((S)-2-methylamino-propionylamino)-butyryl]-4-(4-trifluoromethoxy-benzyl)-piperazine-2-carboxylic acid (1,2,3,4-tetrahydro-naphthalen-1-yl)-amide] |
